The values that follow come from ChEMBL document CHEMBL1152407, “Identification of inhibitors of checkpoint kinase 1 through template screening” (J Med Chem, 2009).

Molecules are shown by their SMILES.

Assay [1] deals with T1, Serine/threonine-protein kinase Chk1 (Homo sapiens) (UniProt O14757).
T1 sequence (whole entry): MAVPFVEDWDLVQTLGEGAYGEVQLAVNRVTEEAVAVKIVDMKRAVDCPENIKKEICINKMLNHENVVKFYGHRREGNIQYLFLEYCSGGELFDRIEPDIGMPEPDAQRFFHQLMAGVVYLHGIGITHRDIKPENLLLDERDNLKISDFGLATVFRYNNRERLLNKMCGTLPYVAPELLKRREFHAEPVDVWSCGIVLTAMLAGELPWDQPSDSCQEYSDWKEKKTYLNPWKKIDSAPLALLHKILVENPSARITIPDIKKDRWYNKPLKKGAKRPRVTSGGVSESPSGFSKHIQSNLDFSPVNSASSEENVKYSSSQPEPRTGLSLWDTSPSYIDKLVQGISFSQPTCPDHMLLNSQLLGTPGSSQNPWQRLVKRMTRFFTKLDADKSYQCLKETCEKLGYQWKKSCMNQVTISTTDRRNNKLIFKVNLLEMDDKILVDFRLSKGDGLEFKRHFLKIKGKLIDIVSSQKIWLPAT
Kind of assay: Inhibition of CHK1 at 250 uM by alphascreen assay. (In general: In Alpha technology, singlet oxygen from a donor bead excites a nearby acceptor bead.)

For assay [2], the target named is T1, Serine/threonine-protein kinase Chk1 (Homo sapiens). Kind of assay: Inhibition of CHK1 at 250 uM by alphascreen assay in presence of 0.01% Triton-X100.
For assay [3] the target is unchanged. Kind of assay: Inhibition of CHK1 assessed as CDC25C peptide phosphorylation at 100 uM by DELFIA assay.
The target in assay [4] is Cyclin-dependent kinase 1 (Homo sapiens) (UniProt P06493). Kind of assay: Inhibition of CDK1 assessed as Rb (ser780) biotinylated peptide phosphorylation at 100 uM by DELFIA assay.
The target in assay [5] is Serine/threonine-protein kinase Chk2 (Homo sapiens, UniProt O96017).
Description: Inhibition of CHK2 assessed as CDC25C peptide phosphorylation by DELFIA assay
A further assay relates to HT-29. Kind of assay: cells. The settings on record: Homo sapiens, HT-29, 96 h.
Assay [6] is described as follows: Selectivity ratio of IC50 for CHK2 to IC50 for CHK1.
For assay [7], the target named is T2, Serine/threonine-protein kinase Chk1 (Homo sapiens, UniProt O14757).
T2 sequence (O14757 whole entry): T1 sequence (whole entry)
Description: Inhibition of CHK1 assessed as CDC25C peptide phosphorylation by DELFIA assay

Sequence of Cyclin-dependent kinase 1 (Homo sapiens) (P06493 whole entry, looked up): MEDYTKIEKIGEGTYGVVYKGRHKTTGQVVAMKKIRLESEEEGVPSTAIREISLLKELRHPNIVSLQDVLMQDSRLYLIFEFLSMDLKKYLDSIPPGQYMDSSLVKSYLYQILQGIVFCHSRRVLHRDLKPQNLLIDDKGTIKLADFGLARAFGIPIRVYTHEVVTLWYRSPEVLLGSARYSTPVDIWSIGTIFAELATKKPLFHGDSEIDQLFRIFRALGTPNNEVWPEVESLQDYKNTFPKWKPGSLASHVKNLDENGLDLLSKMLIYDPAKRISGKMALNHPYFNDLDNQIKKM
Sequence of Serine/threonine-protein kinase Chk2 (O96017 whole entry): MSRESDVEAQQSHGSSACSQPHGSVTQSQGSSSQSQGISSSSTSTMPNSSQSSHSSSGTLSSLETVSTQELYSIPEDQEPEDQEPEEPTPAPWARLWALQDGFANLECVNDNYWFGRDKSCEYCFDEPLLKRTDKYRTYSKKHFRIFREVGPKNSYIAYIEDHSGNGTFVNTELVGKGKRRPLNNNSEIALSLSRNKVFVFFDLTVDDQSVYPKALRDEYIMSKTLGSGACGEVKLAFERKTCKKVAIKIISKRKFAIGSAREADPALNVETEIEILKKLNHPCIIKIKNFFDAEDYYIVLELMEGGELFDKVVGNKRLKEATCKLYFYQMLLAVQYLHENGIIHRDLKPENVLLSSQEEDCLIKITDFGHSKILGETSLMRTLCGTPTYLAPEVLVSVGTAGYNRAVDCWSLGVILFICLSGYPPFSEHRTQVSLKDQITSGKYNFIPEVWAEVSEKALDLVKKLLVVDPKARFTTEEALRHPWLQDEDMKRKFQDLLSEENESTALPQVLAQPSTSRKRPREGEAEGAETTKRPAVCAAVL
Description for HT-29: Cytotoxicity against human HT-29 cells after 96 hrs by SRB assay

Consider `COc1cccc(CNc2ncnc3cc(OC)c(OC)cc23)c1`, for which the inhibition – broadly, the relative decrease from the control value, in per cent – is 50.1% in assay [1] and 52.8% in assay [2].
For `c1nc(N2CCOCC2)c2nc[nH]c2n1`, in that order: 75.7% and 63%.
In the case of `Fc1ccc(-c2onc3ccc(-c4cc[nH]n4)cc23)cc1`, the inhibition in assay [1] amounted to 26.4%; in assay [2], 6.5%.
For the compound `CCCNc1nc2ccccc2c(=O)[nH]1`, the values for the inhibition in assay [1], in assay [2] and in assay [3] were 40.9%, 14.2% and 0%, respectively.
As for `NC[C@@H]1CN(c2c(-c3ccccc3)cnc3[nH]ncc23)CCO1`, the inhibition in assay [4] was 43%. For the same compound, in assay [5], inhibition was half-maximal at 5.9 µM (IC50). Moreover, in the assay on HT-29, the GI50 (in general, the concentration that inhibits growth by half) worked out at 40 µM.
With `O=C(O)CC1CN(c2ncnc3[nH]cnc23)CCO1` (stereo not drawn), in assay [3], the inhibition is 22%.
Take `CC(=O)Nc1nc2c(s1)C(=O)NCCC2`: the results for the inhibition in assay [1], in assay [2] and in assay [3] were 51.4%, 43.1% and 27%, respectively.
Regarding `NCC1CN(c2c(Br)cnc3[nH]ncc23)CCO1` (stereo not drawn), in assay [4], the inhibition amounted to 37%. Also, in assay [6], the Ratio IC50 is 8. Moreover, in assay [5], 7.4 µM corresponded to half-maximal inhibition (IC50). The 50% growth inhibitory concentration (GI50) in the assay on HT-29 amounted to 16 µM.
Take `Clc1ccc2c(Nc3ccccc3)ncnc2c1`: the figures for the inhibition in assay [1] and in assay [2] were 41.9% and 41.5%, respectively.
`CC(C)(C)OC(=O)NCC1CN(c2ncnc3[nH]cnc23)CCO1` (stereo not drawn): the inhibition in assay [3] was found to be 43%.
On to `O=c1[nH]cnc2sc3c(c12)CCCC3`, for which the values for the inhibition in assay [1] and in assay [2] were 38.5% and 45.3%, respectively.
For the compound `CC(C)(C)Nc1nc(N)c(C(=O)c2ccccc2)s1`, the inhibition in assay [1] was determined as 36.9%; in assay [2], 39.9%; in assay [3] it was 33%.
For the compound `NCC1CN(c2c(-c3ccsc3)cnc3[nH]ncc23)CCO1` (stereo not drawn), in assay [4], the inhibition was found to be 48%. The Ratio IC50 in assay [6] was determined as 8. The IC50 – broadly, the concentration that gives 50% inhibition – in assay [7] came out at 290 nM; in assay [5], 4.6 µM. Also, the GI50 in the assay with HT-29 was determined as 10.5 µM.
Take `CCOC(=O)c1cnc2[nH]ncc2c1N1CCOC(CN)C1` (stereo not drawn): the inhibition in assay [4] was 3%.
As to `CSC1=N/C(=C\c2cccs2)C(=O)N1`, the figures for the inhibition in assay [1], in assay [2] and in assay [3] were 35.7%, 33.5% and 32%, respectively.
On to `O=C(O)C1COCCN1c1ncnc2[nH]cnc12` (stereo not drawn), for which the inhibition in assay [3] came to 12%.
